From US20240018105A1, “TROPOLONE DERIVATIVES AND TAUTOMERS THEREOF FOR IRON REGULATION IN ANIMALS” (Kinesid Therapeutics, Inc., priority 2019, published 2024)

Assays:
[1] = Ligand facilitated Fe(III) efflux from liposomes; conditions: 10 uM ligand concentration
Method: Assay 1: Ligand Facilitated Fe(III) Efflux from Liposomes Preparation of POPC (1-palmitoyl-2-oleoyl-sn-glycero-3-phosphocholine): Cholesterol Liposomes:
A 1M buffer solution of MES and Tris was prepared by dissolving 121.14 grams of Tris base and 213.25 grams of MES hydrate in 500 mL of MilliQ water and adjusted to pH7.0 using an […] HCl solution before bringing the total volume of the solution to 1 L. A 500 mM solution of FeCl3 was prepared by dissolving 0.811 grams of anhydrous FeCl3 in 10 mL of a 0.1M H2SO4 aqueous solution. Inside buffer is prepared in a 50 mL falcon tube, which was added with 25 mL of MilliQ water, 1.61 g of sodium citrate, 1.5 mL of the above FeCl3 solution, and 2.5 mL of the 1M MES/Tris HCl buffer (pH=7.0), and finally additional MilliQ H2O to bring to a 50 mL final volume.
Lipid solution is prepared by dissolving 206.9 mg of POPC (1-palmitoyl-2-oleoyl-sn-glycero-3-phosphocholine) and 8.6 mg of cholesterol in 10 mL of ethanol.
The lipids solution and the inside buffer solution are independently loaded into 10 mL luer lock syringes for loading into a virgin cartridge on a Precision Nanosystems NanoAssembler to prepare unilamaller liposomes with the following parameters: 7.5 mL total volume, 1.5:1 mixing ratio of inside buffer:lipids solution, 8 mL/min flow rate, ambient temperature, 0.35 mL start waste, and 0.05 mL of end waste. 7.5 mL of liposomes is harvested for purification on a 6-inch long, 1-inch diameter Sephadex G-50 column wetted in 600 mM sodium ascorbate and 50 mM MES/Tris HCl pH 7.0 buffer. This buffer also serves as the column running buffer. The crude liposome solution is carefully loaded with minimal volume of running buffer above the top of the Sphadex, allowed to enter the matrix, and the column is run with the continued addition of running buffer. The eluting liposomes, observed as a milky and turbid solution, are collected until free iron begins to elute (observed as a deep purple color) and the fractions are pooled for phosphorus quantitation.
Phosphorus content of eluted liposomes was determined by the process outlined below. 10 uL of liposome elution and a running buffer blank are added to a 5 mL glass vial containing 450 uL of a 8.9 M aqueous H2SO4 solution, the mixture is heated to 225° C. for 25 minutes in an aluminum heat block to hydrolyze POPC and cooled for 5 minutes. 200 ul of a 30% hydrogen peroxide aqueous solution is added to each vial and heated to 225° C. for 25 minutes. After cooling, the phosphorus content was determined using an Abcam Phosphate Assay kit, with buffer subtracted phosphorus levels determined against a standard curve of phosphate included in the kit. Liposomes were diluted to 1 mM phosphate in Running Buffer for use in assays after accounting for dilutions made during phospholipid digestion.
Determination of the rate at which a small molecule ligand liberates (transport) Ferric iron from liposomes is performed in clear bottom black 384-well plates on a Spectramax i3x set to read the absorbance at 562 nm in the kinetic mode every 60 seconds for 120 minutes. 1 uL of serially diluted DMSO stock solution of a small molecule ligand is added to wells in triplicate to give the final concentrations of 40, 20, 10, 5, 2.5, and 1.25 uM of the ligand at 80 μL final volume, followed by addition of 1 μL of 100 mM Ferrozine in water to give a final concentration of 1 mM ferrozine. 78 uL of liposomes diluted to 1 mM phosphorus in running buffer is added to wells as quickly as possible (using a digital repeater mulchannel pipette) with the kinetic read initiated as rapidly as possible after addition of liposomes to all wells. Typically, eight compounds at six concentrations are tested in triplicate simultaneously.
Upon completion of kinetic read, the data for individual reads is fitted to a single phase association regression with the equation Y=(Y0−YMax)^(−kX)+YMax, with Y being the 562 absorbance value and X being time in minutes. […]

[2] = test system: DMT1-deficient Caco-2 cells; experiment: shDMT1-Caco2 55Fe transport assay; assay type: cell-based; conditions: Caco-2
Text: Assay 2: shDMT1-Caco2 ^55Fe Transport Assay to Assess Ligand Ability in Transporting Fe (III)
Cells: DMT1-deficient Caco-2 cells (alias: “shDMT1,” or “4A” cells) were from Grillo et al. Science, 2017, and were cryopreserved in liquid nitrogen prior to use.
Reagents and supplies: ^55FeCl3 was obtained from PerkinElmer (Boston, MA). Iron(III) chloride (FeCl3) hexahydrate was obtained from Sigma. Dulbecco's Modified Eagle Medium (DMEM), fetal bovine serum (FBS), L-glutamine, MEM nonessential amino acids, penicillin-streptomycin, G418, formic acid, methanol, high-purity water, ammonium formate, dimethyl sulfoxide (DMSO) were purchased from Fisher Scientific. Propranolol, atenolol and carbutamide were obtained from Sigma-Aldrich Chemical Company (St Louis, MO). Scintillation cocktail was obtained from Research Product International Co. (Mount Prospect, IL). Stericup filter system (PES membrane, 0.22 um pore size) was purchased from Fisher Scientific. Coming item #3378 24-well transwell insert plates. Test articles: known compounds hinokitiol and deferiprone were purchased from Sigma. They are tested side by side with the small molecule ligands disclosed in this application. DMSO stocks (10 mM, which is 1,000× of the 10 μM dose level) of hinokitiol or test articles were prepared. A stock solution of 25 mM deferiprone in DMSO was prepared. The DMSO stock solutions were stored at −20° C. or below when not in use.
The growth medium was prepared according to the following table
Apical media (serum free DMEM, 10 mM MES, pH 6.5) was prepared. Apical master mix media was prepared fresh with the addition of 200 nM ^55Fe before each experiment. For the negative control propranolol and atenolol wells, 200 nM of non-radioactive iron was used.
The basolateral media was serum-free DMEM, 10 mM HEPES, 2% bovine serum albumin (BSA), pH 7.4.
For each experiment, cells were seeded into the 24-well transwell plates (0.5 mL of 50,000 cells/mL) with growth media. The basolateral companion plate was loaded with 1 mL of growth media. After 12-24 hr, both the apical and basolateral chamber were replaced with growth media. The apical media was changed 3× per week for 21-28 days, including a media change exactly 48 hr before the assay date.
On the assay day, the TEER values were measured and the average TEER values was obtained. Individual wells with TEER vaule >35% lower than the average of all wells were excluded. For the qualified wells, the apical layer (twice) and basolaterial (once) chambers were washed with PBS. The basolateral companion plate was then filled with 1 mL of basolateral media. Via addition down the side-wall of the apical well, 300 μL per well of the apical assay master mix, with the indicated dose level of test article, was added. Each dose was tested in triplicate. The plates were incubated (5% CO2 and 90% humidity at 37° C.) for the indicated timepoints. At each indicated timepoint, the basolateral supernatant was gently mixed via pipetting, and 200 μL of the basolateral supernatant was transferred to scintillation vials. To each scintillation counting vial, 5 mL of scintillation cocktail fluid was added. For each scintillation vial, the radioactivity (CPM) was determined with liquid scintillation counter LS6500. The counting time per vial was 5 min.
All raw CPM values are divided by the average value of blank DMSO solution to give a fold of change above the DMSO value. The mean and standard deviation of each compound at each concentration level and at each time point measured was calculated to give the fold change (fc) value.
For rank order compounds, the fc value of a ligand at 4 h time point is further divided by the fold change (fc) value of hinokitiol (a positive control compound) at an equimolar concentration to arrive at the FC (normalized fold of change) value. Data reported in Tables 1 and 2 is 4 hr time point FC=fc-ligand @ 3 uM/fc-hino @ 3 uM, and FC hino=1.

| Caco2 shDMT1 transport FC @ 3 μM, 4h [2] | Compound | Liposome Fe transport kefflux at 10 10 μM ([1]; Table 1) | Liposome Fe transport Kefflux at 10 μM ([1]; Table 1) | Liposome Fe transport Kefflux at 10 μM ([1]; Table 2) |
| --- | --- | --- | --- | --- |
| 0.01-0.5 | O=C(O)C(F)(F)F.O=c1cccc(-c2ccncn2)cc1O [Ex.48, 2-hydroxy-4-(pyrimidin-4-yl)cyclohepta-2,4,6-trien-1-one] | 0.1-5 |  |  |
| 0.01-0.5 | O=c1cccc(-c2cncc(F)c2F)cc1O [Ex.2, 4-(4,5-difluoropyridin-3-yl)-2-hydroxycyclohepta-2,4,6-trien-1-one] | 0.1-5 |  |  |
| 0.01-0.5 | Cc1c(F)cncc1-c1cccc(=O)c(O)c1 [Ex.46, 4-(5-fluoro-4-methylpyridin-3-yl)-2-hydroxycyclohepta-2,4,6-trien-1-one] | 5-7.5 |  |  |
| 0.01-0.5 | O=c1ccccc(-c2cncc(F)c2)c1O [Ex.24, 2-(5-fluoropyridin-3-yl)-7-hydroxycyclohepta-2,4,6-trien-1-one] | 7.5-10 |  |  |
| 0.02-0.03 | Cc1c(O)c(=O)ccn1C [deferiprone, reference compound] |  | 0 |  |
| 0.01-0.5 | O=c1ccc(-c2cnccc2F)ccc1O [Ex.51, 5-(4-fluoropyridin-3-yl)-2-hydroxycyclohepta-2,4,6-trien-1-one] | 5-7.5 |  |  |
| 0.01-0.5 | COc1cc(-c2cccc(=O)c(O)c2)ccn1 [Ex.8, 2-hydroxy-4-(2-methoxypyridin-4-yl)cyclohepta-2,4,6-trien-1-one] | 7.5-10 |  |  |
| 0.01-0.5 | Cc1ncc(-c2ccc(O)c(=O)cc2)cn1 [Ex.33, 2-hydroxy-5-(2-methylpyrimidin-5-yl)cyclohepta-2,4,6-trien-1-one] | 0.1-5 |  |  |
| 0.01-0.5 | COc1nccc(-c2ccc(O)c(=O)cc2)n1.O=C(O)C(F)(F)F [Ex.38, 2-hydroxy-5-(2-methoxypyrimidin-4-yl)cyclohepta-2,4,6-trien-1-one] | 0.1-5 |  |  |
| 0.01-0.5 | COc1ncccc1-c1cccc(=O)c(O)c1 [Ex.54, 2-hydroxy-4-(2-methoxypyridin-3-yl)cyclohepta-2,4,6-trien-1-one] | 10-25 |  |  |
| 0.01-0.5 | Cc1cnccc1-c1cccc(=O)c(O)c1 [Ex.9, 2-hydroxy-4-(3-methylpyridin-4-yl)cyclohepta-2,4,6-trien-1-one] | 0.1-5 |  |  |
| 0.01-0.5 | COc1ccc(-c2cccc(=O)c(O)c2)cn1 [Ex.19, 2-hydroxy-4-(6-methoxypyridin-3-yl)cyclohepta-2,4,6-trien-1-one] | 0.1-5 |  |  |
| 0.01-0.5 | O=c1cccc(-c2cnc(N3CCOCC3)nc2)cc1O [Ex.42, 2-hydroxy-4-(2-morpholinopyrimidin-5-yl)cyclohepta-2,4,6-trien-1-one] | 7.5-10 |  |  |
| 0.01-0.5 | O=c1cccc(-c2cccnc2)cc1O [Ex.11, 2-hydroxy-4-(pyridin-3-yl)cyclohepta-2,4,6-trien-1-one] | 0.1-5 |  |  |
| 0.01-0.5 | O=c1ccccc(-c2cc(F)ccn2)c1O [Ex.70, 3-(4-fluoropyridin-2-yl)-2-hydroxycyclohepta-2,4,6-trien-1-one] |  |  | 10-25 |
| 0.01-0.5 | O=c1ccc(-c2ccncn2)ccc1O [Ex.49, 2-hydroxy-5-(pyrimidin-4-yl)cyclohepta-2,4,6-trien-1-one] | 0.1-5 |  |  |
| 0.01-0.5 | O=c1cccc(-c2cncnc2)cc1O [Ex.29, 2-hydroxy-4-(pyrimidin-5-yl)cyclohepta-2,4,6-trien-1-one] | 5-7.5 |  |  |
| 0.01-0.5 | COc1nccc(-c2cccc(=O)c(O)c2)n1.O=C(O)C(F)(F)F [Ex.39, 2-hydroxy-4-(2-methoxypyrimidin-4-yl)cyclohepta-2,4,6-trien-1-one] | 0.1-5 |  |  |
| 0.01-0.5 | Cc1ccc(-c2cccc(=O)c(O)c2)cn1 [Ex.18, 2-hydroxy-4-(6-methylpyridin-3-yl)cyclohepta-2,4,6-trien-1-one] | 0.1-5 |  |  |
| 0.01-0.5 | COc1cc(-c2cccc(=O)c(O)c2)c(F)cn1 [Ex.6, 4-(5-fluoro-2-methoxypyridin-4-yl)-2-hydroxycyclohepta-2,4,6-trien-1-one] | 7.5-10 |  |  |
| 0.01-0.5 | O=c1cccc(-c2cnccc2F)cc1O [Ex.52, 4-(4-fluoropyridin-3-yl)-2-hydroxycyclohepta-2,4,6-trien-1-one] | 0.1-5 |  |  |
